Biological target: T1, LRRK2 (Homo sapiens, UniProt Q5S007, G2019S)
T1 construct: purchased Invitrogen PV4882 (lot 567054A)
Experiment: In Vitro LRRK2 Assay (LabChip 3000, fluorescently-labeled peptide substrate, ATP)
Format: biochemical
Conditions: read-out: LRRK2 Ki (KI), Table 8
Method in brief: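 LRRK2, fluorescent peptide substrate (diluted to 4 μM before mixing), ATP and compound were incubated 2 h in the dark, then stopped. Phosphorylated and unphosphorylated peptide were separated by capillary electrophoresis and quantified by fluorescence. Ki was fitted with a tight-binding equation including enzyme concentration, S and Km; IC50 or percent inhibition were also reported.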

T1 sequence (Q5S007 whole entry G2019S): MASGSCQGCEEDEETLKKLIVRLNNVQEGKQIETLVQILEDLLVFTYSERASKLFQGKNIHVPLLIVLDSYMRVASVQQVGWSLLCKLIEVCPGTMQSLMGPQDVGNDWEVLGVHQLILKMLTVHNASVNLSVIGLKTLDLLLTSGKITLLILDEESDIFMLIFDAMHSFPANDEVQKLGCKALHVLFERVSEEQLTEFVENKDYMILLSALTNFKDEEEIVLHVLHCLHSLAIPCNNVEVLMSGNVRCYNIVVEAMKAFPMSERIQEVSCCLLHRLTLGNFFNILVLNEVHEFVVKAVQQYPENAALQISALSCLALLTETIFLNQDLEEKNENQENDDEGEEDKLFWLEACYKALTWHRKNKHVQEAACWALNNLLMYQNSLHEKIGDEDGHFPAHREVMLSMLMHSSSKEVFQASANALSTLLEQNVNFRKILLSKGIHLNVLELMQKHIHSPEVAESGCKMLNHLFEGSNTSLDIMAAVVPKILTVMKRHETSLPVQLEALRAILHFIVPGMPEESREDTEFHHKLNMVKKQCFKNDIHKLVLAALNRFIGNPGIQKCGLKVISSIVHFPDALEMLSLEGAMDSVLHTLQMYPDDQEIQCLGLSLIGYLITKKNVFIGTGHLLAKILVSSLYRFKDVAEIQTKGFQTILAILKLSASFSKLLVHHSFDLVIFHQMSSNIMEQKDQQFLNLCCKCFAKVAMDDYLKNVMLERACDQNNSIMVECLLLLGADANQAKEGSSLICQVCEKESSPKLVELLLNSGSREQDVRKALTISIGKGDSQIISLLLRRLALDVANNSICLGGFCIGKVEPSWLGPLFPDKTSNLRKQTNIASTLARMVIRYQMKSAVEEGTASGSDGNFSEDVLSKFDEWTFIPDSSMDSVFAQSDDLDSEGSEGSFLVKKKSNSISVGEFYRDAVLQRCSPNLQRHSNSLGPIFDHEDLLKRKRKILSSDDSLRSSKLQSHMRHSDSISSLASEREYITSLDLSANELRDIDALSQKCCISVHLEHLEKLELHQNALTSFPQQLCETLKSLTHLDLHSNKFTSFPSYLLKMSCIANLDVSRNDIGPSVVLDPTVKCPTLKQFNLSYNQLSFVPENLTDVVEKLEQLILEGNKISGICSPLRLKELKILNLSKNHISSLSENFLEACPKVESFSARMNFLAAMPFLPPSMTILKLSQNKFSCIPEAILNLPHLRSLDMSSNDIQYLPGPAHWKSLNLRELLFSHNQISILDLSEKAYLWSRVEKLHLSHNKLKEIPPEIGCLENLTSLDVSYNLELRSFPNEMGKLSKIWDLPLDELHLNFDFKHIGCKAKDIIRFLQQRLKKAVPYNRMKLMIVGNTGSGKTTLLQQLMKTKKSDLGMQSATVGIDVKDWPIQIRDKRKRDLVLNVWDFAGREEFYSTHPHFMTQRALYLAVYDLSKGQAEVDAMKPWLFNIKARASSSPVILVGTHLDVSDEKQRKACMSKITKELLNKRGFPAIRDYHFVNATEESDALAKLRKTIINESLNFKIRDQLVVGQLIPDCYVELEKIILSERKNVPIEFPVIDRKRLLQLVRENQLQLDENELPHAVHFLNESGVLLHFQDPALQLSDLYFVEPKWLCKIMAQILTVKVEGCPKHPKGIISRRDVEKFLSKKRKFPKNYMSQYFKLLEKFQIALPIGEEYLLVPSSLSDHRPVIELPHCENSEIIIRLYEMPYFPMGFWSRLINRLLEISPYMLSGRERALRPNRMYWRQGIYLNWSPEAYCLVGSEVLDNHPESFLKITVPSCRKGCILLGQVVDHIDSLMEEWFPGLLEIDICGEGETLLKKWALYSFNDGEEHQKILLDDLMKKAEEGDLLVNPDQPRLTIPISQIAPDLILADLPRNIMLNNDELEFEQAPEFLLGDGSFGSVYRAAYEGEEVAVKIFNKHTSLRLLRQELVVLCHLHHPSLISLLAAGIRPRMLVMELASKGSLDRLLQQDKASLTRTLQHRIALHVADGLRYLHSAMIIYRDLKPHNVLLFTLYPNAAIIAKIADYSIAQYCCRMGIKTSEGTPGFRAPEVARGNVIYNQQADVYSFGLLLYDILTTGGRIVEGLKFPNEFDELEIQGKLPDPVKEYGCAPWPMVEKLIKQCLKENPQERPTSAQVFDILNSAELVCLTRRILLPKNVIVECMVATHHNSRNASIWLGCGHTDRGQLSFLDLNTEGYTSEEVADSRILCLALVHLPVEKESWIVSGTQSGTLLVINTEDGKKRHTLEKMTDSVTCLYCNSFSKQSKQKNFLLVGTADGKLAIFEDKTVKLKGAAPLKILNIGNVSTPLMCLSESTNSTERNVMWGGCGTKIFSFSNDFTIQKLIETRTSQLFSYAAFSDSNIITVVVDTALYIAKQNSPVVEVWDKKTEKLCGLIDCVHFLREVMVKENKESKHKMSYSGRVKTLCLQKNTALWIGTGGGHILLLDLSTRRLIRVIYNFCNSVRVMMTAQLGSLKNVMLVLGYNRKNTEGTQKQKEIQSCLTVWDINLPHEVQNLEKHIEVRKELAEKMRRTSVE

SMILES | Ki
CNc1nc(Nc2cnn(C)c2C2CCC2)ncc1C(F)(F)F [Example 229, N2-(5-cyclobutyl-1-methyl-1H-pyrazol-4-yl)-N4-methyl-5-(trifluoromethyl) pyrimidine-2,4-diamine] | 11 nM
CNc1nc(Nc2cn(C3CCCOC3)nc2C)ncc1C(F)(F)F (stereo not shown) [Example 230, N4-methyl-N2-(3-methyl-1-(tetrahydro-2H-pyran-3-yl)-1H-pyrazol-4-yl)-5-(trifluoromethyl) pyrimidine-2,4-diamine] | 9.6 nM
CNc1nc(Nc2cnn(C3CCCOC3)c2C)ncc1C(F)(F)F (stereo not shown) [Example 231, N4-methyl-N2-(5-methyl-1-(tetrahydro-2H-pyran-3-yl)-1H-pyrazol-4-yl)-5-(trifluoromethyl) pyrimidine-2,4-diamine] | 1.8 nM
Cc1c(Nc2ncc(C(F)(F)F)c(NCC3CCOCC3)n2)cnn1C [Example 232, N2-(1,5-dimethyl-1H-pyrazol-4-yl)-N4-((tetrahydro-2H-pyran-4-yl)methyl)-5-(trifluoromethyl) pyrimidine-2,4-diamine] | 9.6 nM
CNc1nc(Nc2cn([C@@H]3CCN(C)C3)nc2C)ncc1C(F)(F)F [Example 233, (R)-N4-methyl-N2-(3-methyl-1-(1-methylpyrrolidin-3-yl)-1H-pyrazol-4-yl)-5-(trifluoromethyl) pyrimidine-2,4-diamine] | 61 nM
CCNc1nc(Nc2cnn(CC(C)(C)O)c2Cl)ncc1C(F)(F)F [Example 234, 1-(5-chloro-4-(4-(ethylamino)-5-(trifluoromethyl)pyrimidin-2-ylamino)-1H-pyrazol-1-yl)-2-methylpropan-2-ol] | 3.1 nM
CNc1nc(Nc2cn(CC(C)(C)O)nc2C2CC2)ncc1C(F)(F)F [Example 235, 1-(3-cyclopropyl-4-(4-(methylamino)-5-(trifluoromethyl)pyrimidin-2-ylamino)-1H-pyrazol-1-yl)-2-methylpropan-2-ol] | 5.1 nM
CCNc1nc(Nc2cn(CC(C)(C)O)nc2C2CC2)ncc1C(F)(F)F [Example 236, 1-(3-cyclopropyl-4-(4-(ethylamino)-5-(trifluoromethyl)pyrimidin-2-ylamino)-1H-pyrazol-1-yl)-2-methylpropan-2-ol] | 1.5 nM
CNC(=O)C(C)(C)n1ncc(Nc2ncc(C(F)(F)F)c(NC)n2)c1Cl [Example 237, 2-(5-chloro-4-(4-(methylamino)-5-(trifluoromethyl)pyrimidin-2-ylamino)-1H-pyrazol-1-yl)-N,2-dimethylpropan-amide] | 45 nM
CNc1nc(Nc2cn(C3CCN(CCOC)CC3)nc2C)ncc1C(F)(F)F [Example 238, N2-(1-(1-(2-methoxyethyl)piperidin-4-yl)-3-methyl-1H-pyrazol-4-yl)-N4-methyl-5-(trifluoromethyl) pyrimidine-2,4-diamine] | 16 nM
CNc1nc(Nc2cnn(C3CCN(CCOC)CC3)c2C)ncc1C(F)(F)F [Example 239, N2-(1-(1-(2-methoxyethyl)piperidin-4-yl)-5-methyl-1H-pyrazol-4-yl)-N4-methyl-5-(trifluoromethyl) pyrimidine-2,4-diamine] | 6 nM
CNc1nc(Nc2cnn(C3CCN(C)CC3F)c2Cl)ncc1C(F)(F)F (stereo not shown) [Example 241, N2-(5-chloro-1-(3-fluoro-1-methylpiperidin-4-yl)-1H-pyrazol-4-yl)-N4-methyl-5-(trifluoromethyl) pyrimidine-2,4-diamine] | 1.8 nM
CCN1CCC(n2ncc(Nc3ncc(C(F)(F)F)c(NC)n3)c2Cl)C(F)C1 (stereo not shown) [Example 242, N2-(5-chloro-1-(1-ethyl-3-fluoropiperidin-4-yl)-1H-pyrazol-4-yl)-N4-methyl-5-(trifluoromethyl) pyrimidine-2,4-diamine] | 2.1 nM
CCNc1nc(Nc2cn(S(=O)(=O)CC)nc2C)ncc1C(F)(F)F [Example 243, N4-ethyl-N2-(1-(ethylsulfonyl)-3-methyl-1H-pyrazol-4-yl)-5-(trifluoromethyl) pyrimidine-2,4-diamine] | 0.5 nM
CCNc1nc(Nc2cnn(S(=O)(=O)CC)c2C)ncc1C(F)(F)F [Example 244, N4-ethyl-N2-(1-(ethylsulfonyl)-5-methyl-1H-pyrazol-4-yl)-5-(trifluoromethyl) pyrimidine-2,4-diamine] | 4.7 nM
CNc1nc(Nc2cnn(C)c2N(C)C)ncc1C(F)(F)F [Example 247, N2-(5-(dimethylamino)-1-methyl-1H-pyrazol-4-yl)-N4-methyl-5-(trifluoromethyl) pyrimidine-2,4-diamine] | 77.9 nM
CCS(=O)(=O)n1cc(Nc2ncc(C(F)(F)F)c(NC)n2)c(C)n1 [Example 249, N^2-(1-(ethylsulfonyl)-3-methyl-1H-pyrazol-4-yl)-N4-methyl-5-(trifluoromethyl) pyrimidine-2,4-diamine] | 3.3 nM
CNc1nc(Nc2cn(CC(C)(C)O)nc2C)ncc1C(F)(F)F [Example 250, 2-Methyl-1-[3-methyl-4-(4-methylamino-5-trifluoromethyl-pyrimidin-2-ylamino)-pyrazol-1-yl]-propan-2-ol] | 12.2 nM
CCn1cc(Nc2ncc(Br)c(NC)n2)c(C)n1 [Example 253, 5-Bromo-N2-(1-ethyl-3-methyl-1H-pyrazol-4-yl)-N4-methyl-pyrimidine-2,4-diamine] | 2.2 nM
CNc1nc(Nc2cn(CC(F)(F)F)nc2C)ncc1C(F)(F)F [Example 254, N4-Methyl-N2-[3-methyl-1-(2,2,2-trifluoro-ethyl)-1H-pyrazol-4-yl]-5-trifluoromethyl-pyrimidine-2,4-diamine] | 7.7 nM
CNc1nc(Nc2cnn(C(F)F)c2C)ncc1Br [Example 255, 5-Bromo-N2-(1-difluoromethyl-5-methyl-1H-pyrazol-4-yl)-N4-methyl-pyrimidine-2,4-diamine] | 0.7 nM
CNc1nc(Nc2cn(C(F)F)nc2C)ncc1Br [Example 256, 5-Bromo-N2-(1-difluoromethyl-3-methyl-1H-pyrazol-4-yl)-N4-methyl-pyrimidine-2,4-diamine] | 2.2 nM
CCNc1nc(Nc2cnn(C)c2C)ncc1Br [Example 257, 5-Bromo-N2-(1,5-dimethyl-1H-pyrazol-4-yl)-N4-ethyl-pyrimidine-2,4-diamine] | 1.5 nM
CCCn1ncc(Nc2ncc(Br)c(NC)n2)c1C [Example 259, 5-Bromo-N4-methyl-N2-(5-methyl-1-propyl-1H-pyrazol-4-yl)-pyrimidine-2,4-diamine] | 5.7 nM
CNc1nc(Nc2cn(-c3ccc(Cl)cc3)nc2C)ncc1Br [Example 260, 5-Bromo-N2-[1-(4-chloro-phenyl)-3-methyl-1H-pyrazol-4-yl]-N4-methyl-pyrimidine-2,4-diamine] | 0.3 nM
CCNc1nc(Nc2cnn(C)c2C)ncc1C(F)(F)F [Example 261, N2-(1,5-Dimethyl-1H-pyrazol-4-yl)-N4-ethyl-5-trifluoromethyl-pyrimidine-2,4-diamine] | 1.3 nM
CCNc1nc(Nc2cn(C3CCC(=O)NC3)nc2C)ncc1C(F)(F)F (stereo not shown) [Example 262, 5-[4-(4-Ethylamino-5-trifluoromethyl-pyrimidin-2-ylamino)-3-methyl-pyrazol-1-yl]-piperidin-2-one] | 1.3 nM
CCNc1nc(Nc2cn(-c3ccc(C(=O)N(C)C)cc3)nc2C)ncc1C(F)(F)F [Example 263, 4-[4-(4-Ethylamino-5-trifluoromethyl-pyrimidin-2-ylamino)-3-methyl-pyrazol-1-yl]-N,N-dimethyl-benzamide] | 1.8 nM

Source: patent publication US8815882B2, “Pyrazole aminopyrimidine derivatives as LRRK2 modulators” (Genentech, Inc., priority 2010, dated 2014)
